Reference: patent publication US20090312406A1, “COUMARIN COMPOUNDS AND THEIR USE FOR TREATING VIRAL INFECTION” (priority 2008, published 2009)
Read-outs that look alike come from different tables or passages of the source.

Legend:
[1] = tested on: Influenza A/WSN/33 (H1N1) virus; experiment: In vitro anti-influenza virus assay (neutralization test), cytopathic effect on MDCK cells; assay type: cell-based
Procedure: (§1) Anti-influenza activities of the coumarin compounds were evaluated by measuring the ability of a test compound to inhibit the cytopathic effect induced by an influenza virus on MDCK cells. The 96-well tissue culture plates were seeded with 200 μL of MDCK cells at a concentration of 1.1×10^5 cells/mL in DMEM with 10% fetal bovine serum (FBS). The plates were incubated for 24-30 h at 37° C. and were used at about 90% confluency. Influenza A/WSN/33 (H1N1) virus (100 TCID50) was added to the cells and incubated at 35° C. for 1 h. After adsorption, the infected cell plates were overlaid with 50 μL of DMEM plus 2% FBS and a test compound with different concentrations. The plate was incubated at 35° C. for 72 h. At the end of incubation, the plates were fixed by the addition of 100 μL of 4% formaldehyde for 1 h at room temperature. After the removal of formaldehyde, the plates were stained with 0.1% crystal violet for 15 min at room temperature. The plates were washed and dried, and the density of the well was measured at 570 nm. The concentration required for a test compound to reduce the virus-induced cytopathic effect (CPE) by 50% relative to the virus control was expressed as IC50.
(§2) Compounds 1 and 95 were also tested on various influenza virus strains. Amantadine or Relenza was also tested for comparison. IC50 is defined as the concentration required for a test compound to reduce the virus-induced cytopathic effect (CPE) by 50% relative to the virus control.

[2] = tested on: herpes simplex virus type 1; experiment: In vitro assessment of anti-HSV activity, plaque reduction assay in Vero cells (Example 8); assay type: cell-based
Procedure: Anti-HSV activities of compounds described herein were evaluated by performing a plaque reduction assay using monolayer cultures of Vero cells in 24-well culture plates. A cell monolayer was infected with herpes simplex virus type 1 (50 pfu/well) and incubated at 37° C. with 5% CO2 for 1 h. The infected cell monolayer was then washed three times with PBS and overlaid with a solution (maintenance medium containing 1% methylcellulose and various concentrations of a test compound). After 72 h of incubation at 37° C., the cell monolayer was fixed with 10% formalin and stained with 1% crystal violet. […] The minimal concentration of a compound required to reduce 50% of plaque numbers (EC50) was calculated by regression analysis of the dose-response curves generated from the plaque assay.

[3] = Cytotoxicity (CC50) of the compounds tested in the anti-HSV assay; assay type: cell-based; settings: African green monkey, Vero cells; Table 5; read-out: CC50 (μM), 50% cytotoxicity concentration
HIV-1 = experiment: Inhibition of HIV-1 replication in peripheral blood mononuclear cells, viral RNA by real-time PCR; settings: Human immunodeficiency virus 1, PBMC
Procedure: Equal amounts of wild-type and mutant viruses were used to infect 5×10^4 peripheral blood mononuclear cells (PBMC) in 1.5 mL medium containing DMSO or various concentrations of a test compound. A half-milliliter of the culture medium was collected from each culture at days 3, 5, and 7. Viral RNA was extracted from the collected culture supernatants and the viral titers (copies/mL) were determined by real-time PCR. The percentage of inhibition was calculated as [100−(VD/VC)]×100%, where VD and VC refer to the virus titers in the presence and absence of the test compound, respectively.

[4] = tested on: Influenza A/TW/141/04 (H1N1); experiment: Anti-influenza CPE neutralization test on MDCK cells; assay type: cell-based; settings: Influenza A virus
Procedure: as §1, §2

[5] = tested on: Influenza A/TW/3446/04 (H3N2); experiment: as above; assay type: cell-based; settings: Influenza A virus
Procedure: as §1, §2

[6] = tested on: Influenza A/TW/785/05 (H1N1); experiment: as above; assay type: cell-based; settings: Influenza A virus
Procedure: as §1, §2

[7] = tested on: Influenza A/TW/83/05 (H3N2); experiment: as above; assay type: cell-based; settings: Influenza A virus
Procedure: as §1, §2

[8] = tested on: Influenza A/Udorn/72 (H3N2); experiment: as above; assay type: cell-based; settings: Influenza A virus
Procedure: as §1, §2

Influenza B/TW/70325/05 = experiment: as above; assay type: cell-based; settings: Influenza B virus, Influenza B/TW/70325/05, CPE
Procedure: as §1, §2

Influenza B/TW/710/05 = experiment: as above; assay type: cell-based; settings: Influenza B virus, Influenza B/TW/710/05, CPE
Procedure: as §1, §2

Influenza B/TW/99/07 = experiment: as above; assay type: cell-based; settings: Influenza B virus, Influenza B/TW/99/07, CPE
Procedure: as §1, §2

Enterovirus 71 (4643) = experiment: In vitro EV 71 neutralization assay, cytopathic effect on RD cells; assay type: cell-based; settings: Enterovirus A; Enterovirus 71 (4643), RD cells, CPE; read-out: IC50
Procedure: (§3) This assay measured the ability of a test compound to inhibit the cytopathic effect induced by a picornavirus (EV71, Coxsackie Virus B3, or human rhinovirus 2) on RD cells. The method used for this assay is described in Chang et al., J Med Chem, 2005, 48(10), 3522-3535. More specifically, 96-well tissue culture plates were seeded with 200 μL of RD cells at a concentration of 3×10^5 cells/mL in DMEM with 10% FBS. The plates were incubated for 24-30 h at 37° C. and were used at about 90% confluency. Virus (100 TCID50) mixed with different concentrations of a test compound was added to the cells and incubated at 37° C. for 1 h. After adsorption, the infected cell plates were overlaid with 50 μL of DMEM plus 5% FBS and 2% DMSO. The plate was wrapped in Parafilm and incubated at 37° C. for 64 h. At the end of incubation, the plates were fixed by the addition of 100 μL of 0.5% glutaraldehyde for 1 h at room temperature. After the removal of glutaraldehyde, the plates were stained with 0.1% crystal violet for 15 min at room temperature. The plates were washed and dried, and the density of the well was measured at 570 nm. The concentration required for a test compound to reduce the virus-induced cytopathic effect (CPE) by 50% relative to the virus control is expressed as IC50.

Coxsackie B virus 3 = experiment: In vitro Coxsackie Virus B3 neutralization assay, cytopathic effect on RD cells; assay type: cell-based; settings: Coxsackie B virus 3, RD cells, CPE
Procedure: as §3

Human rhinovirus 2 = experiment: In vitro human rhinovirus 2 neutralization assay, cytopathic effect on RD cells; assay type: cell-based; settings: Rhinovirus A; Human rhinovirus 2, RD cells, CPE; read-out: IC50
Procedure: as §3

[9] = MDCK cells, 72 h, lower bound (10 nM), upper in μM, read-out: IC50 (concentration reducing virus-induced cytopathic effect by 50%)
[10] = MDCK cells, 72 h, ranges given, read-out: IC50 (concentration reducing virus-induced cytopathic effect by 50%)

SMILES: Cc1cc(=O)oc2c1ccc1oc(C(=O)c3ccccc3)c(-c3ccc(Br)cc3)c12 [Compound 140]
- IC50 [1, 9]: 10 to 999 nM
- SI, selectivity index = CC50/EC50 ([2]; CC50/EC50, HSV-1): >291.545
- EC50 ([2]; Human alphaherpesvirus 1, herpes simplex virus type 1, Vero cells, plaque reduction, 72 h, read-out: EC50 (μM), 50% effective concentration): 0.343 µM
- CC50 [3]: > 100 µM
- inhibition at 0.1 µM (HIV-1; 72 h, read-out: Inhibition (%) Day 3): 19%
- inhibition at 0.1 µM (HIV-1; 120 h, read-out: Inhibition (%) Day 5): 65%
- inhibition at 0.1 µM (HIV-1; 168 h, read-out: Inhibition (%) Day 7): 93%

SMILES: CC(=O)N[C@H]1[C@H]([C@H](O)[C@H](O)CO)OC(C(=O)O)=C[C@@H]1N=C(N)N [Relenza, Zanamivir, reference compound]
- IC50 ([1]; MDCK, CPE, Table 2, read-out: IC50): 62 ± 18 nM
- IC50 [4]: 350 ± 140 nM
- IC50 [5]: 30 ± 10 nM
- IC50 [6]: 1060 ± 982 nM
- IC50 [7]: 918 ± 26 nM
- IC50 [8]: 670 ± 232 nM
- IC50 (Influenza B/TW/70325/05): 20 ± 10 nM
- IC50 (Influenza B/TW/710/05): 30 ± 19 nM
- IC50 (Influenza B/TW/99/07): 99 ± 9 nM
- IC50 (Enterovirus 71 (4643)): > 25000 nM
- IC50 (Coxsackie B virus 3): > 25000 nM
- IC50 (Human rhinovirus 2): > 25000 nM

SMILES: Cc1cc(=O)oc2c1ccc1oc(C(=O)c3ccccc3)c(-c3ccc(Cl)c(Cl)c3)c12 [Compound 224]
- IC50 [1, 10]: 6000 to 25000 nM

SMILES: Cc1cc(=O)oc2c1ccc1oc(C(=O)c3cccc(OCCCO[Si](C)(C)C(C)(C)C)c3)c(-c3ccccc3)c12 [Compound 190]
- IC50 [1, 10]: 1000 to 5900 nM

SMILES: CCCCOc1cccc(C(=O)c2oc3ccc4c(C)cc(=O)oc4c3c2-c2cccc(Br)c2)c1 [Compound 262]
- IC50 [1, 9]: 10 to 999 nM

SMILES: CCCCCOc1cccc(C(=O)c2oc3ccc4c(C)cc(=O)oc4c3c2-c2cccc(Br)c2)c1 [Compound 263]
- IC50 [1, 10]: 1000 to 5900 nM

SMILES: Cc1cc(=O)oc2c1ccc1oc(C(=O)c3cccc(OCCOC4OC(O)C(O)C(O)C4CO)c3)c(-c3ccccc3)c12 (stereo not drawn) [Compound 195]
- IC50 [1, 10]: 6000 to 25000 nM
